The record followed here is PMC12238238, “Identification of gut bacteria reductases that biotransform steroid hormones” (Nature Communications, 2025).

Assay [1] deals with T1, baiH ([Clostridium] scindens, UniProt P32370).
T1 construct: expressed in E. coli, whole-cell biotransformation
T1 sequence (P32370 1-661): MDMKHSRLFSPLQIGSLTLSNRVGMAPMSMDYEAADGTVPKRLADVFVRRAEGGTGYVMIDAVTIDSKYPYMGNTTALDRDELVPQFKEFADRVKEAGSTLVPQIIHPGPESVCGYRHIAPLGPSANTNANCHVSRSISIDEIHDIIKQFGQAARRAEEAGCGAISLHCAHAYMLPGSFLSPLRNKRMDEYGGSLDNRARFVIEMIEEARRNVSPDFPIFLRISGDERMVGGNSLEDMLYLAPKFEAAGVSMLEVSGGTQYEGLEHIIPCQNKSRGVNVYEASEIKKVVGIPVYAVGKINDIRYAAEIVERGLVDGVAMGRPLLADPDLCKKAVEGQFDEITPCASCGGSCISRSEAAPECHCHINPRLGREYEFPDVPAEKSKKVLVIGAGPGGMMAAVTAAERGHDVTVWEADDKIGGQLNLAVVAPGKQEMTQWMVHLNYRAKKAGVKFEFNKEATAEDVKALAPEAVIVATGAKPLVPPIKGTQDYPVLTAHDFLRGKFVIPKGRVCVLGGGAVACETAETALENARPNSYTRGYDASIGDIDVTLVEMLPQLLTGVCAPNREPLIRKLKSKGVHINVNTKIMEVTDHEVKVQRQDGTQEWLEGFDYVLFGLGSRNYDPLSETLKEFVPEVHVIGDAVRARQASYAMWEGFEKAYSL
Description: LC-MS of products in E. coli expressing the gene. In kind it is cell-based. To be noted: whole E. coli cells, anaerobic, 1 mg/100 mL steroid, 48 h, 37 °C; product progesterone.

The target in assay [2] is T2, ci2350 (Δ4-3-ketosteroid 5β-reductase).
T2 construct: recombinant in E. coli, Ni HisTrap purified (pET28a/kanamycin); mutants assayed in E. coli cells
Description: isothermal titration calorimetry. The assay is classed as binding, [Clostridium] innocuum. The following applies: 0.1 M sodium phosphate, 0.2 M NaCl, 20 mM BME, 0.5 mM CHAPS, pH 6.5, 25 °C; independent model, single site.

Assay [3] has as its target T3, dw0523 (3β-HSDH/I) (Dysosmobacter welbionis, UniProt A0A4D7AXI1).
T3 construct: gene EIO64_02590; expressed in E. coli, whole-cell biotransformation; separate (unfused) 3β-HSDH/I gene
T3 sequence (A0A4D7AXI1 1-497): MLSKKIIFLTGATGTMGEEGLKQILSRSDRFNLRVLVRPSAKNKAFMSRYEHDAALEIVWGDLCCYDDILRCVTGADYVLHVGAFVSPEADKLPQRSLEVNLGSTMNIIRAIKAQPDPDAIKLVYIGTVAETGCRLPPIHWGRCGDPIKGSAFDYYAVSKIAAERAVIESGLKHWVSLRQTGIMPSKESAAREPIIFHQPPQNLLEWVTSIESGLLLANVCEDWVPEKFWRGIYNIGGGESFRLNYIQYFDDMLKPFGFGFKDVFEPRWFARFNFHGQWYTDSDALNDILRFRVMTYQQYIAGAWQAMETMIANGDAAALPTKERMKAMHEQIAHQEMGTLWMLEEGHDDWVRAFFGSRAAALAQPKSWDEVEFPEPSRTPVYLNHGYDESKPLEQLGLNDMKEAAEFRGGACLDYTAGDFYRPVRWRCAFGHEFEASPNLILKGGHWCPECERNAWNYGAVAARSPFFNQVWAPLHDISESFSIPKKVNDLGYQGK
Description: LC-MS of products in E. coli expressing the gene. In kind it is cell-based. To be noted: whole E. coli cells, anaerobic, 1 mg/100 mL steroid, 48 h, 37 °C; product progesterone.

In assay [4] the target is T4, baiCD ([Clostridium] scindens, UniProt P19410).
T4 construct: expressed in E. coli, whole-cell biotransformation
T4 sequence (P19410 1-639): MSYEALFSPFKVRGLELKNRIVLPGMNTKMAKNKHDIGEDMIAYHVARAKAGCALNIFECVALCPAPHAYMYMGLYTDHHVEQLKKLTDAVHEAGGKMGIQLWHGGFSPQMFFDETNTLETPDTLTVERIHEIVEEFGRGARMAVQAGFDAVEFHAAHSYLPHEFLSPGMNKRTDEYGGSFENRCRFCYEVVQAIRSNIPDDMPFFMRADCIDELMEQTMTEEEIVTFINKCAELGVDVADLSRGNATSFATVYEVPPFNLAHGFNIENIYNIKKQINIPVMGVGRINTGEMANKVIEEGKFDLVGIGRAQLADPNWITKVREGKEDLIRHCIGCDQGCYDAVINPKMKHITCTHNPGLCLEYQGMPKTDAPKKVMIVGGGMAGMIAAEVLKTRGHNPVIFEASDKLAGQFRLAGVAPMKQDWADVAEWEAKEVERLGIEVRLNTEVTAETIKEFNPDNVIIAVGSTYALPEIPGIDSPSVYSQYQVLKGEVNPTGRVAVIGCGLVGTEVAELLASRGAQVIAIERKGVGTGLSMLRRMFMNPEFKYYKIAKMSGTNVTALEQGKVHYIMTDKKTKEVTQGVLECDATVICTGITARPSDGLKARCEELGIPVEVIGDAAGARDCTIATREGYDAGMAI
Description: LC-MS of products in E. coli expressing the gene. To be noted: whole E. coli cells, anaerobic, 1 mg/100 mL steroid, 48 h, 37 °C; product 5β-dihydroprogesterone. In kind it is cell-based.

Regarding `CC(=O)[C@H]1CC[C@H]2[C@@H]3C=CC4=CC(=O)CC[C@]4(C)[C@H]3CC[C@]12C` [6-dehydroprogesterone], the “LC-MS of products in E. coli expressing the gene” value (shortened to “LC-MS of products”) in assay [1] is on record as “only partial conversion of the substrate by C. scindens baiH”. Moreover, the Kd in assay [2] is 594 nM.

In turn, `C[C@]12CCC(=O)C=C1CC[C@@H]1[C@@H]2C(=O)C[C@@]2(C)[C@H]1CC[C@]2(O)C(=O)CO` [cortisone] had a Kd in assay [2] of 759 nM.

The compound `C[C@]12CCC(=O)C=C1CC[C@@H]1[C@@H]2[C@@H](O)C[C@@]2(C)[C@H]1CC[C@]2(O)C(=O)CO` [hydrocortisone] showed a Kd in assay [2] of 668 nM.

Consider `CC(=O)[C@H]1CC[C@H]2[C@@H]3CC=C4C[C@@H](O)CC[C@]4(C)[C@H]3CC[C@]12C` [pregnenolone], for which the “LC-MS of products” value in assay [3] is “with dw0523 producing only progesterone”.

In assay [2], `CC(=O)[C@H]1CC[C@H]2[C@@H]3CCC4=CC(=O)CC[C@]4(C)[C@H]3CC[C@]12C` [progesterone] came in with a Kd of 432 nM. The “LC-MS of products” value in assay [4] was “baiCD had limited, but detectable, reduction of progesterone”.
